# Data: US9771430B2, “Method of treating a metabolic disorder induced by obesity in a subject in need thereof by administering MK2/3 inhibitors” (THE TRUSTEES OF COLUMBIA UNIVERSITY IN THE CITY OF NEW YORK, priority 2011, dated 2017)
# Assays:
# CaMKII [1] = format: cell-based, mouse
# Procedure: FIG. 1A. CaMKII enzyme activity was assayed in triplicate wells of primary mouse HCs stimulated with 100 nM glucagon (Gluc) or vehicle control (Veh) for the indicated times (*P<0.05 and **P<0.01 vs. Veh; mean±S.E.M.). FIGS. 1B-1J. Extracts of HCs or liver were probed for phospho-CaMKII, total CaMKII, and β-actin by immunoblot assay. FIG. 1B. HCs were incubated with […] glucagon for the indicated times; FIG. 1C. Glucagon was added to HCs that were pre-treated for 1 h with vehicle control (Veh) or 5 μM BAPTA-AM; FIG. 1D. Glucagon was added to HCs that were pre-treated with 0.5 μM xestospongin (XesC) or to HCs from Ip3r1fl/fl mice transduced with adeno-LacZ control or adeno-Cre (bar graph=Ip3r1 mRNA levels); FIG. 1E. Glucagon was added to HCs that were pre-treated for 1 h with vehicle control (Veh) or 10 μM H89. FIG. 1F. […] FIGS. 1G-1J. In vivo experiments. In FIG. 1G, mice were treated for 30 min with 200 μg kg−1 body weight of glucagon i.p., and in FIG. 1H, mice were pre-treated with 10 pmol g−1 xestospongin C or vehicle control i.p. 4 days prior to glucagon treatment. In FIGS. 1I-1J, mice were fed ad libitum or fasted for 12 h, or fasted for 12 h and then re-fed for 4 h.
# Total RNA was extracted from hepatocytes using the RNeasy kit (Qiagen). cDNA was synthesized from 2 μg total RNA using oligo (dT) and Superscript II (Invitrogen). Real-time qPCR analysis and western blotting were performed as previously described (Timmins et al., 2009). Nuclear extraction from liver was performed using the Nuclear Extraction Kit from Panomics according to the manufacturer's instructions.
# (§1) Immunoblot and RT-qPCR assays were performed as previously described (Timmins et al., 2009). Total RNA was extracted from HCs using the RNeasy kit (Qiagen). cDNA was synthesized from 2 μg total RNA using oligo (dT) and Superscript II (Invitrogen). Nuclear extraction from liver was performed using the Nuclear Extraction Kit from Panomics according to the manufacturer's instructions.
# CRTC2 = CRTC2 dephosphorylation and nuclear translocation in primary hepatocytes; format: cell-based, mouse; details: inhibitor pre-treatment 1 h, glucagon 100 nM
# Procedure: (§2) HEK293T (ATCC) cells were cultured in DMEM containing 10% FBS (HyClone), […] penicillin-streptomycin. Mouse primary hepatocytes were isolated and cultured as previously described (18). Cellular fractionation studies were conducted as previously reported (18). For reporter studies, Ad-CRE-luc infected hepatocytes (1 pfu per cell) were exposed to glucagon (Gcg, 100 nM) for 2˜4 h. For cyclosporine A (CsA, 10 μM) or okadaic acid (OA, 100 nM) or cell permeable calcineurin autoinhibitory peptide (10 μM) or CN585 (100 μM) or Calyculin A (10 nM) or Xestospongin C (Xc, 2 μM) or H89 (30 μM) or BAPTA (50 μM) inhibition, hepatocytes were pre-treated with the inhibitors for one hour. Luciferase activities were normalized to β-galactosidase activity from adenoviral-encoded RSV β-gal. Calcineurin activity (test kit from Enzo Life Sciences) and cellular cAMP levels (test kit from Cayman Chemical Company) were measured according to manufacturer's instructions.
# (§3) Immunoblot, immunoprecipitation, and immunostaining assays were performed as described (18). CRTC2, pCREB (Ser133), CREB, pAKT (Thr308), AKT, tubulin, HA, and FLAG antibodies were previously described (18). The antibodies anti-InsP3R1 (A302-158A) and InsP3R3 (A302-160A) were purchased from Bethyl Laboratories, anti-InsP3R2 (ab77838) from Abcam, anti-Calcineurin (610260) from BD Biosciences, anti-GRP78 (ADI-SPA-826-F) from Enzo Life Sciences, anti-phospho-PKA substrate (RRXS/T, 9624), anti-phospho-AKT substrate (RXXS/T, 9614) and CRTC2 (pS171, 2892) from Cell Signaling. CRTC2 (pS275) antibody was employed as described (19).
# CREB = assay: PKA-mediated phosphorylation of CREB in hepatocytes; format: cell-based, mouse
# Procedure: as §3
# [2] = system: CRE-luciferase (luc) reporter; assay: CRE-luciferase reporter activity in primary hepatocytes; format: cell-based, mouse; details: response to glucagon
# Procedure: as §2
# G6pc and Pck1 mRNA = G6pc and Pck1 mRNA (RT-qPCR) in primary mouse hepatocytes; format: cell-based
# Procedure: FIG. 32A-E. Related to FIG. 26—p38. FIG. 32A Mice were fed ad libitum or fasted for 12 h. Liver phospho-p38, total p38, p-MK2, total MK-2, and β-actin were assayed by immunoblot. FIG. 32B WT HCs were serum-depleted overnight and then incubated for 5 h with 100 nm glucagon in serum-free media with or without SB202190; or glucagon was added to HCs from P38a^fl/fl mice treated with adeno-LacZ (control) or adeno-Cre. RNA was assayed for G6pc and Pck1 mRNA (*P<0.05; mean±S.E.M.). FIG. 32C HCs from fasting WT and Camk2g^−/− mice were assayed for p-p38, total p38, and β-actin. FIG. 32D WT mice were injected i.p. with 12.5 mg kg^−1 body weight of p38 inhibitor (SB202190) or vehicle control. 12 h later, the mice were injected with an additional dose of SB202190 and fasted overnight. The livers were assayed for nuclear FoxO1, nucleophosmin, p-MK2, total MK-2, and β-actin. The correlation between nuclear FoxO1 and p-MK2 band intensities is shown in the graph. FIG. 32E Adeno-GFP-FoxO1-transduced HCs were serum-depleted overnight, and then incubated for 5 h in serum-free media with SB202190 or vehicle (Veh) control. FoxO1 localization was assessed by indirect immunofluorescence (Bar, 10 μm; *P<0.05; mean±S.E.M.).
# FIGS. 53A-B. MK-2 regulates hepatic FoxO1 subcellular localization and hepatic G6Pc and Pck1. FIG. 53A. Adeno-GFP-FoxO1-transduced HCs were serum-depleted overnight, and then incubated for 30 min in serum-free media with 2 uM MK-2 inhibitor or vehicle (Veh) control. FoxO1 localization was assessed by indirect immunofluorescence (Bar, […]; *P<0.005; mean±S.E.M.). FIG. 53B WT HCs were serum-depleted overnight and then incubated for 5 h with 100 nm glucagon in serum-free media with or without MK-2 inhibitor. RNA was assayed for G6pc and Pck1 mRNA (*P<0.005; mean±S.E.M.). MK-2 Inhibitor is from Calbiochem (cat#475864): 2-(2-Quinolin-3-ylpyridin-4-yl)-1,5,6,7-tetrahydro-4H-pyrrolo-[3,2-c]pyridin-4-one.
# FIG. 69. MK-2 inhibitor suppresses forskolin-induced Pck1 and G6Pc induction in primary hepatocytes. Primary hepatocytes from WT mice were serum-depleted overnight and then pre-treated with 300 nM MK-2 inhibitor (compound 28) or vehicle for 1 h. Cells were then treated with 2 μM forskolin in serum-free media with or without the inhibitor for 4 h. RNA was assayed for G6pc and Pck1 mRNA by RT-qPCR. *, P<0.0001.
# Primary mouse HCs were isolated from 8- to 12-week-old mice as described previously (Matsumoto et al., 2002). For most experiments, the HCs were serum-depleted overnight by incubation in medium containing 0.5% fetal calf serum and were then incubated for 5 h in serum-free media, with individual treatments noted in the figure legends. HCs were transduced with adenoviral constructs 12 h after plating, and experiments were conducted 24 h after transduction. Transfections with WT, 7A- and 9A-Foxo1 were carried out using jetPEI™-hepatocyte DNA transfection reagent (Polyplus-transfection, Inc.) according to manufacturer's instructions.
# as §1, with “instructions. […] Whether their origin is alternative splicing or post-translational modification remains to be determined.” for “instructions.”
# FoxO1 [3] = assay: Nuclear FoxO1 in mouse liver (immunoblot of nuclear extracts); format: in vivo; details: fasting mice, 12.5 mg kg−1 i.p., two doses
# Procedure: FIGS. 24A-D. CaMKII regulates hepatic FoxO1 subcellular localization. FIG. 24A HCs from WT and Camk2g^−/− mice were transduced with an adenovirus expressing murine GFP-FoxO1 at an MOI of 2. Cells were serum-depleted overnight and then incubated for 5 h in serum-free media. FoxO1 subcellular localization was assessed by indirect immunofluorescence. Bar, 10 μm. Data are quantified in the right panel. (^#P<0.0005; mean±S.E.M.). […] Bar, 5 μm. FIG. 24C HCs were transduced with adeno-LacZ or CA-CaMKII and then adeno-GFP-FoxO1 as in FIG. 24B. After incubation in serum-depleted medium o.n. and then serum-free medium for 5 h, the cells were treated with 100 nM insulin for the indicated times. FoxO1 subcellular localization was quantified as in FIG. 24B (*P<0.005 vs. LacZ in each group; mean±S.E.M.).
# FIG. 32A-E. Related to FIG. 26—p38. FIG. 32A Mice were fed ad libitum or fasted for 12 h. Liver phospho-p38, total p38, p-MK2, total MK-2, and β-actin were assayed by immunoblot. […] FoxO1 localization was assessed by indirect immunofluorescence (Bar, 10 μm; *P<0.05; mean±S.E.M.).
# Immunoblot and RT-qPCR assays were performed as previously described (Timmins et al., 2009). […] Whether their origin is alternative splicing or post-translational modification remains to be determined.
# FoxO1 [4] = assay: FoxO1 subcellular localization in primary mouse hepatocytes; format: cell-based; details: HCs treated with glucagon
# Procedure: FIG. 24A HCs from WT and Camk2g^−/− mice were transduced with an adenovirus expressing murine GFP-FoxO1 at an MOI of 2. Cells were serum-depleted overnight and then incubated for 5 h in serum-free media. FoxO1 subcellular localization was assessed by indirect immunofluorescence. Bar, 10 μm. Data are quantified in the right panel. (^#P<0.0005; mean±S.E.M.). FIG. 24B HCs were transduced with adenoviral vectors expressing LacZ, CA-CaMKII, or KD-CaMKII at an MOI of 20 and then transduced 4 h later with adeno-GFP-FoxO1, followed by fluorescence microscopy and quantification as in FIG. 24A (^#P<0.005 vs. LacZ; mean±S.E.M.). Bar, 5 μm. FIG. 24C HCs were transduced with adeno-LacZ or CA-CaMKII and then adeno-GFP-FoxO1 as in FIG. 24B. After incubation in serum-depleted medium o.n. and then serum-free medium for 5 h, the cells were treated with 100 nM insulin for the indicated times. FoxO1 subcellular localization was quantified as in FIG. 24B (*P<0.005 vs. LacZ in each group; mean±S.E.M.).
# Primary hepatocytes from WT mice were transduced with adeno-LacZ (LacZ) or adeno-DN-MK2 (DN-MK2) at an MOI of 1. […]
# p42 MAP kinase = p42 MAP kinase (Homo sapiens, UniProt P28482); details: at 100 μM; cited from earlier work
# Sequence of p42 MAP kinase (P28482 whole entry): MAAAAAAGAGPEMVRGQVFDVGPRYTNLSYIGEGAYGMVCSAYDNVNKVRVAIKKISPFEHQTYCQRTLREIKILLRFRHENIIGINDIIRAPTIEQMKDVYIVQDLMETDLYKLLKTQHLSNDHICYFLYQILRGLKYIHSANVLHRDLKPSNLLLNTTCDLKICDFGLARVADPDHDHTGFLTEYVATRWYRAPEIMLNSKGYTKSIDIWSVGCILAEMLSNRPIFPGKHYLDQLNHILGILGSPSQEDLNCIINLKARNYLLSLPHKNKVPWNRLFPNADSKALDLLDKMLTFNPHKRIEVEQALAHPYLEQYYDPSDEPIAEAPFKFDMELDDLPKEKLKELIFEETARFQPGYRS
# JNK = details: at 100 μM; cited from earlier work
# CaMKII [5] = details: WT Mφs, 4 h, 5 μM
# Procedure: Immunoblots of pThr287-CaMKII in FIG. 15A WT, Insr−/−, and ob/obMφs±FC loading or oxLDL and FIG. 15B WT Mφs±4 h treatment with 5 μM U0126 ERK inhibitor.
# [6] = system: InsP3R1, InsP3R2 and InsP3R3; assay: InsP3R phosphorylation in hepatocytes (phospho-substrate antiserum immunoblot); format: cell-based, mouse; details: phospho-AKT substrate antiserum
# cytosolic free calcium = assay: Calcium mobilization in primary hepatocytes (Fura-2 imaging); format: cell-based, mouse; details: cells expressing wild-type InsP3R1
# Procedure: Mouse primary hepatocytes were plated on glass coverslips and loaded with 5 μM Fura-2 acetoxymethyl ester (Molecular Probes) in the presence of 0.025% (w/v) pluronic F127 (Sigma-Aldrich) in Media 199 (Mediatech) for 30 minutes. […] The ratio of fluorescence intensity at the two excitation wavelengths was calculated after subtracting background fluorescence. [Ca2+]I (cytosolic free calcium concentration) was calculated using a Fura-2 calcium imaging calibration kit (Invitrogen). Images were collected and analyzed using the MetaFluor software package (Universal Imaging Corp.). Graphs represent average responses from groups of 30-40 individual cells from representative single experiments. Bar graphs represent average responses (fold over average baseline) from 150-200 cells per condition. All experiments were repeated at least three times with similar results.
# calcineurin = assay: Calcineurin activity in primary hepatocytes; format: cell-based, mouse; details: cells expressing wild-type InsP3R1
# Procedure: as §2
compound,measurement,setting,value
"CC(=O)OCOC(=O)CN(CC(=O)OCOC(C)=O)c1ccccc1OCCOc1ccccc1N(CC(=O)OCOC(C)=O)CC(=O)OCOC(C)=O [BAPTA-AM, 1,2-bis[2-aminophenoxy]ethane-N,N,N′,N′-tetraacetic acid tetrakis[acetoxymethyl ester]]",glucagon-induced CaMKII phosphorylation,"CaMKII [1]; HCs pre-treated with inhibitor, then glucagon",markedly decreased
same,glucagon-induced dephosphorylation (and nuclear translocation) of CRTC2,CRTC2,disrupted
same,PKA-mediated phosphorylation of CREB in response to glucagon,CREB,did not block
same,CRE-luciferase (luc) reporter activity / activation,[2],disrupted
"O=C1NCCc2[nH]c(-c3ccnc(-c4cnc5ccccc5c4)c3)cc21 [MK2 inhibitor, 2-(2-Quinolin-3-ylpyridin-4-yl)-1,5,6,7-tetrahydro-4H-pyrrolo-[3,2-c]pyridin-4-one]",nuclear FoxO1 and induction of genes involved in hepatic glucose production,"G6pc and Pck1 mRNA; 2 uM MK-2 inhibitor, glucagon 100 nm 5 h (FIG. 53)",importance of MK2 in both nuclear FoxO1 and in induction of genes
Oc1ccc(-c2nc(-c3ccncc3)c(-c3ccc(F)cc3)[nH]2)cc1 [SB202190],nuclear FoxO1 in liver as a function of p38 inhibition (p-MK2),FoxO1 [3],clear decrease
same,expression of G6pc and Pck1,G6pc and Pck1 mRNA; glucagon-stimulated HC,blocked
same,nuclear GFP-FoxO1,FoxO1 [4],decreased
C[S+]([O-])c1ccc(-c2nc(-c3ccncc3)c(-c3ccc(F)cc3)[nH]2)cc1 (stereo not drawn) [SB203580],inhibition of p42 MAP kinase,p42 MAP kinase,does not significantly inhibit
same,inhibition of JNK,JNK,does not significantly inhibit
N#CC(=C(/N)Sc1ccccc1N)/C(C#N)=C(\N)Sc1ccccc1N [U0126],p-CaMKII,CaMKII [5],increase
C1CNC1 [azetidine],p-CaMKIIγ in HCs,CaMKII [1]; ER stress activation,increased
C=C[C@@]1(C)CC(=O)[C@]2(O)[C@@]3(C)[C@@H](O)CCC(C)(C)[C@@H]3[C@H](O)[C@H](OC(C)=O)[C@@]2(C)O1 [forskolin],"G6pc mRNA, untreated WT HCs lower than forskolin-treated WT HCs",G6pc and Pck1 mRNA; forskolin 10 μM,~165 fold
same,"Pck1 mRNA, untreated WT HCs lower than forskolin-treated WT HCs",G6pc and Pck1 mRNA; forskolin 10 μM,~2500 fold
C=C1[C@@H](O)[C@@H]2O[C@]3(CC[C@H](/C=C/[C@@H](C)[C@@H]4CC(C)=C[C@@]5(O[C@H](C[C@@](C)(O)C(=O)O)CC[C@H]5O)O4)O3)CC[C@H]2O[C@@H]1[C@@H](O)C[C@H](C)[C@H]1O[C@@]2(CCCCO2)CC[C@H]1C [okadaic acid],glucagon-induced dephosphorylation (and nuclear translocation) of CRTC2,CRTC2,did not
insulin: hormone,InsP3R phosphorylation,[6],increased
same,glucagon-dependent increases in calcium mobilization,cytosolic free calcium,reduced
same,glucagon-dependent increases in calcineurin activation,calcineurin,reduced
